Test results as given in EP1282725B1, “METHODS OF MODULATING FUNCTIONS OF POLYPEPTIDE GalNAc TRANSFERASES AND OF SCREENING SUBSTANCES THEREFOR” (Glycozym ApS, priority 2000, dated 2001).

How the values were obtained:
GalNAc-T4 [1] = assay: Inhibition of the glycosylation dependent (GalNAc-glycopeptide) activity of GalNAc-T4, time-course MALDI-TOF; type: biochemical, human
Method: (§1) MALDI-TOF time-course in terminal reactions were performed in reactions of 25 µl containing 2.5 nmol acceptor (glyco)peptide, 40 nmol UDP-GalNAc, and 0.4 µg GalNAc-T4. Sampling of reactions (1 µl) were purified by nano-scale reversed-phase chromatography (Poros R3, PerSeptive Biosystem) and applied directly to the probe with matrix (41). The amount of GalNAc-transferase added was adjusted so that the reaction with the appropriate peptide was near completion in six hours. Reactions were incubated at 37°C in a shaker bath. At times 0, 2 hours, and 16 hours a 1 µl aliquot was taken and purified. Mass spectra were acquired on either Voyager-DE mass spectrometer equipped with delayed extraction (Perseptive Biosystem Inc.). The matrix used was 2,5-dihydroxybenzoic acid (10 mg/ml, Hewlett-Packard) dissolved in a 2:1 mixture of 0.1% trifluoroacetic acid in 30 % aqueous acetonitrile (Rathburn Ltd.).
Quantification of purified proteins was done by Coomassie stained SDS-PAGE and titration of immunoreactivity with the monoclonal antibody, UH6(4G2) (8). […] Wild-type GalNAc-T4 and mutant GalNAc-T4, GalNAc-T4^459H, were analysed with unglycosylated peptides (represented by PSGL-1) or GalNAc glycosylated glycopeptides (represented by GalNAc3TAP25V21) in reactions of 25 µl containing 2.5 nmol acceptor (glyco)peptide, 40 nmol UDP-GalNAc, and 0.4 µg GalNAc-T4. Time-course assays were motioned by MALDI-TOF. Sampling of reactions (1 µl) were purified by nano-scale reversed-phase chromatography (Poros R3, PerSeptive Biosystem) and applied directly to the probe with matrix. Evaluation of inhibition of the glycopeptide specificity of wild-type GalNAc-T4 with free sugars was performed to establish if the lectin domain recognized carbohydrate. […] Further, analysis was performed with 10 mM α-D-GalNAc-1-benzyl, αGlcNAc-benzyl, and fully occupied GalNAc-glycopeptide, GalNAc6TAP25, at 5 mM.

GalNAc-T3 = assay: Inhibition of GalNAc-T3 activities with EA2 acceptor substrate; type: biochemical, human; details: for Activity in the presence of inhibitors: inhibitors 230 mM, EA2 acceptor
Method: (§2) Products were quantified by scintillation counting after chromatography on Dowex-1, octadecyl silica cartridges (Bakerbond), or HPLC (PC3.2/3 or mRPC C2/C18 SC2.1/10 Pharmacia, Smart System). […] Glycopeptides were purified on Supelclean LC-18 columns (1 ml, Supelco), and the number of GalNAc residues incorporated evaluated by MALDI-TOF mass spectrometry. The enzyme sources used were semipurified as previously described by successive sequential ion-exchange chromatographies on Amberlite (IRA95, Sigma) or DEAE Sephacel (Pharmacia), S-Sepharose Fast Flow (Pharmacia), and Mini-S^TM (PC 3.2/3, Pharmacia) using the Smart System (Pharmacia) (28). Secreted GalNAc-T4 was obtained from a stably transfected CHO line ([…]) (8) grown in roller bottles in HAMS F12 supplemented with 10 % Fetal Bovine Serum. The experiments illustrated in Fig. 1 was performed with recombinant secreted GalNAc-T4 obtained from a stably transfected CHO line (8). Experiments illustrated in Figs. 2 and 3 were performed with secreted GalNAc-T4 expressed in High Five cells grown in serum-free medium (8). Structural analysis of glycopeptides were performed by a combination of PFPA (pentafluoropropionic acid) hydrolysis and MALDI-TOF mass spectrometry as previously described (40). Secreted GalNAc-T7 was obtained from infected High Five^TM cells grown in serum-free medium (Invitrogen) in upright roller bottles shaken 140 rpm in waterbaths at 27 °C. GalNAc-T7 was not purified by Mini-S as the yields from cationic chromatography were low due to its low pI (6.4). […] Galactosyl transferring activities of GalNAc-T1, -T2, and -T3, were assayed with a panel of acceptor peptides in standard reaction mixtures containing 100 μM UDP-Gal instead of UDP-GalNAc.

GalNAc-T2 [2] = assay: Inhibition of GalNAc-T2 activities with Muc2 acceptor substrate; type: biochemical, human; details: for Activity in the presence of inhibitors: inhibitors 230 mM, Muc2 acceptor
Method: as §2

GalNAc-T7 = assay: Inhibition of GalNAc-T7 activity with GalNAc2-3EA2 substrate; type: biochemical, human; details: for inhibition of the activity of GalNAc-T7 with GalNAc2-3EA2: 5 mM concentrations; for Activity in the presence of inhibitors: inhibitors 5 mM, GalNAc2-3EA2 substrate, without inhibitor 6.8
Method: Standard reaction mixtures (50 µl final volume) contained 25 mM cocadylate (pH 7.4), 10 mM MnCl2, 0.25% Triton X-100, 200 µM UDP-[^14C]-GalNAc (2,000 cpm/nmol) (Amer-sham), 200-500 µM acceptor peptides. Products were quantified by scintillation counting after chromatography on Dowex-1, octadecyl silica cartridges (Bakerbond), or HPLC (PC3.2/3 or mRPC C2/C18 SC2.1/10 Pharmacia, Smart System). […] Glycopeptides were purified on Supelclean LC-18 columns (1 ml, Supelco), and the number of GalNAc residues incorporated evaluated by MALDI-TOF mass spectrometry. The enzyme sources used were semipurified as previously described by successive sequential ion-exchange chromatographies on Amberlite (IRA95, Sigma) or DEAE Sephacel (Pharmacia), S-Sepharose Fast Flow (Pharmacia), and Mini-S™ (PC 3.2/3, Pharmacia) using the Smart System (Pharmacia) (28). Secreted GalNAc-T4 was obtained from a stably transfected CHO line (CHO/GalNA-T4/21A) (8) grown in roller bottles in HAMS F12 supplemented with 10 % Fetal Bovine Serum. The experiments illustrated in Fig. 1 was performed with recombinant secreted GalNAc-T4 obtained from a stably transfected CHO line (8). Experiments illustrated in Figs. 2 and 3 were performed with secreted GalNAc-T4 expressed in High Five cells grown in serum-free medium (8). Structural analysis of glycopeptides were performed by a combination of PFPA (pentafluoropropionic acid) hydrolysis and MALDI-TOF mass spectrometry as previously described (40). Secreted GalNAc-T7 was obtained from infected High Five™ cells grown in serum-free medium (Invitrogen) in upright roller bottles shaken 140 rpm in waterbaths at 27 °C. GalNAc-T7 was not purified by Mini-S as the yields from cationic chromatography were low due to its low pI (6.4).
GalNAc-T7 activity was analysed with GalNAc glycosylated glycopeptides (represented by GalNAc2-3EA2 (7)) in reactions of 25 µl containing 2.5 nmol acceptor (glyco)peptide, 40 nmol UDP-GalNAc, and purified GalNAc-T7. […] Further, analysis was performed with 10 mM α-D-GalNAc-1-benzyl, αGlcNAc-benzyl, and fully occupied GalNAc-glycopeptide, GalNAc6TAP25, at 5 mM.

GalNAc-T4 [3] = assay: Direct binding to free GalNAc, conventional binding assays; set-up: species or system human
GalNAc-T2 [4] = assay: as above; set-up: species or system human
[5] = system: GalNAc-T4^459D or -T4^459H; assay: Glycosylation independent activity of GalNAc-T4 wild-type and lectin mutant with naked peptides, MALDI-TOF; type: biochemical, human; details: naked peptides (PSGL-1); free sugars
Method: as §1
Quantification of purified proteins was done by Coomassie stained SDS-PAGE and titration of immunoreactivity with the monoclonal antibody, UH6(4G2) (8). […] Wild-type GalNAc-T4 and mutant GalNAc-T4, GalNAc-T4^459H, were analysed with unglycosylated peptides (represented by PSGL-1) or GalNAc glycosylated glycopeptides (represented by GalNAc3TAP25V21) in reactions of 25 µl containing 2.5 nmol acceptor (glyco)peptide, 40 nmol UDP-GalNAc, and 0.4 µg GalNAc-T4. […]

[6] = […] free sugars, GalNAc3TAP25V21 glycopeptide substrate
[7] = donor UDP-Gal, without inhibitor 6.3
[8] = donor UDP-GalNAc, without inhibitor 34
[9] = donor UDP-Gal, without inhibitor 90
[10] = donor UDP-GalNAc, without inhibitor 340

SMILES	inhibition of the glycosylation dependent specificity of GalNAc-T4 (GalNAc-T4 [1]; [6])	Activity in the presence of inhibitors (GalNAc-T3; [7])	Activity in the presence of inhibitors (GalNAc-T3; [8])	Activity in the presence of inhibitors (GalNAc-T2 [2]; [9])	Activity in the presence of inhibitors (GalNAc-T2 [2]; [10])	inhibition of the activity of GalNAc-T7 with GalNAc2-3EA2 (GalNAc-T7)	Activity in the presence of inhibitors (GalNAc-T7)	also measured
CC(=O)N[C@H]1C(O)O[C@H](CO)[C@@H](O)[C@@H]1O (stereo partly shown) [GlcNAc]	failed to show significant inhibition	7 nmol/min/mL	32 nmol/min/mL	68 nmol/min/mL	310 nmol/min/mL			
CC(=O)N[C@H]1[C@@H](OCc2ccccc2)O[C@H](CO)[C@@H](O)[C@@H]1O [αGlcNAc-benzyl]								inhibition of the glycosylation dependent specificity of GalNAc-T4 (GalNAc-T4 [1]; 10 mM benzyl glycoside): did not inhibit catalytic activity
CC(=O)N[C@H]1[C@@H](OCc2ccccc2)O[C@H](CO)[C@H](O)[C@@H]1O[C@@H]1O[C@H](CO)[C@H](O)[C@H](O)[C@H]1O [Galβ1-3GaINAcα1-bz, Galβ1-3GalNAcα1-benzyl]						significantly inhibited	4.5 nmol/min/mL	inhibition of GalNAc-T4 glycopeptide activity compared to GalNAc (GalNAc-T4 [1]; concentration not given): neither Gal nor Galβ1-3GalNAcα1-benzyl produced significant inhibition
OC[C@H]1O[C@H](OCc2ccccc2)[C@@H](O)[C@@H](O)[C@@H]1O [bz-αMan]							6.7 nmol/min/mL	
C[C@@H]1OC(O)[C@@H](O)[C@H](O)[C@@H]1O (stereo partly shown) [Fuc]	failed to show significant inhibition	6.5 nmol/min/mL	34 nmol/min/mL	89 nmol/min/mL	370 nmol/min/mL			
OC[C@H]1O[C@@H](OCc2ccccc2)[C@H](O)[C@@H](O)[C@H]1O [bz-βGal]						significantly inhibited	4.7 nmol/min/mL	
CC(=O)N[C@H]1C(O)O[C@H](CO)[C@H](O)[C@@H]1O (stereo partly shown) [GalNAc, N-acetylgalactosamine]		2.5 nmol/min/mL	35 nmol/min/mL	24 nmol/min/mL	300 nmol/min/mL			inhibition of the glycosylation dependent specificity of GalNAc-T4 (GalNAc-T4 [1]; 50 mM sugars (not shown)): approximately 50%; direct binding of GalNAc-T4 to free GalNAc (GalNAc-T4 [3]): could not detect direct binding; direct binding of GalNAc-T2 to free GalNAc (GalNAc-T2 [4]): could not detect direct binding; effect on the glycosylation independent activities of GalNAc-T4 [5]: no effect on the general catalytic function of the enzyme; inhibition of the galactosyltransferase activity of GalNAc-T3 (GalNAc-T3; donor UDP-Gal): selectively inhibited; inhibition of the galactosyltransferase activity with Muc2 substrate (GalNAc-T2 [2]; donor UDP-Gal): selectively inhibited
CC(=O)N[C@H]1[C@@H](OCc2ccccc2)O[C@H](CO)[C@H](O)[C@@H]1O [bz-αGalNAc, α-D-GalNAc-1-benzyl]						significantly inhibited	5.4 nmol/min/mL	
OC[C@H]1OC(O)[C@H](O)[C@@H](O)[C@H]1O (stereo partly shown) [Gal]	failed to show significant inhibition	7.3 nmol/min/mL	33 nmol/min/mL	89 nmol/min/mL	300 nmol/min/mL			
